Laboratory results reported in patent US5484778A, “Phthalocyanine photosensitizers for photodynamic therapy and methods for their use” (priority 1993, dated 1996).

Experiments:
[1] = test system: Chinese hamster fibroblasts, i.e. V79 cells
Description: Initially, applicants examined the photocytotoxicity of twenty-one phthalocyanines taken from a collection in the applicants' laboratories to Chinese hamster fibroblasts, i.e. V79 cells.

[2] = test system: Chinese hamster V79-379 cells; experiment: Growth delay of V79 cultures after red light (Table 1); format: cell-based
Procedure: (§1) Chinese hamster V79-379 lung fibroblasts were grown in monolayer culture in McCoy's 5A medium (Gibco Laboratories, Grand Island, N.Y.) augmented with 10% calf serum and buffered with 20 mM HEPES (pH 7.4).
(§2) The cells were treated with 1 μM AlPcCl (from Eastman Kodak, Rochester, N.Y.) or with phthalocyanine compositions I-VI (0.5-1.0 μM final concentration in the medium) for 18 hours by adding the appropriate volume of a 1.0 mM stock solution in dimethylformamide (DMF) to the culture medium. The growth medium was replaced with 4 ml Hank's balanced salt solution (HBSS), and the cells were irradiated. The light source was a 500 W tungsten-halogen lamp located approximately 29 inches below the surface of a glass exposure tray. The visible light administered to the cells was filtered to allow passage of only that portion of the visible spectrum above 600 nm (Lee Primary red filter No. 106, Vincent Lighting, Cleveland, Ohio). The fluence rate was approximately 0.074 kJ/m^2 /s at the level of the cell monolayer.
At the time of light exposure, there were approximately 1.5×10^5 cells per 25 cm^2 flask. Following irradiation, the HBSS was replaced by 10 ml of fresh complete growth medium, and the cultures were returned to the 37° C. incubator. At various times before and after irradiation, duplicate cultures were trypsinized and counted. Controls included untreated cells and cells treated with light alone or drug alone. In addition, in each experiment, the drug to be tested was compared to a standard treatment, i.e. 1 μM AlPcCl for 18 hours followed by 12 kJ/m^2 light.
The inhibition of V79 culture growth was measured during a three day period following red light irradiation (12 kJ/m^2) of phthalocyanine-pretreated cells. With each of the active compounds, as well as with AlPcCl, there was an initial decrease in cell density, as dead cells became detached from the monolayer. Thereafter, the cell number per flask increased, as living cells grew and divided. The time for the cell density to recover to the level at the time of light exposure was considered the growth delay. […] The ratio of the growth delay for the test photosensitizer and the growth delay for AlPcCl measured in the same experiment is recorded in Table 1.

[3] = test system: Chinese hamster V79-379 cells; experiment: Clonogenic cell survival / photocytotoxicity in V79 cells (Table 1, FIG. 1, FIG. 2); format: cell-based; conditions: 1.0 μM, 18 h
Procedure: FIG. 1 is a graph illustrating the photodynamic efficacy of the various compositions of the present invention in comparison to AlPcCl. The phthalocyanine composition compounds of the present invention were tested for their photodynamic efficiency against Chinese hamster fibroblast V79 cells by colony formation. Monolayer cultures were treated with the indicated phthalocyanine composition for 18 hours, irradiated with various fluences of red light, and immediately trypsinized and replated at appropriate aliquots in triplicate. Colonies of at least 50 cells were counted after 7-10 days. The plating efficiency of the untreated cells was approximately 90%.
In this regard, in FIG. 2 the data of FIG. 1 were replotted as a function of the product of the amount of cell-associated phthalocyanine and the light fluence.
as §1, §2
Cells were irradiated at a density of approximately 2×10^6 per 25 cm^2 flask. Immediately after irradiation, the cell monolayer was treated with trypsin, and appropriate aliquots were plated in triplicate to give 100 to 200 colonies in each 10-cm Petri dish. Cell survival was determined by the ability of the cells to form colonies containing at least 50 cells. The response of cells treated with 1 μM AlPcCl and light was compared in each experiment.
Photocytotoxicity of the phthalocyanines compounds I to VI was also assessed by clonogenic assay (Table 1, FIG. 1). In all experiments, 1 μM AlPcCl was included for comparison purposes. From the survival curves (FIG. 1), the fluence reducing the cell survival to 10% (F10) was obtained. The ratio of the F10 for AlPcCl and the F10 for the test compound is recorded in Table 1.
In order to take differences in cellular uptake into consideration in the assessment of the relative efficiency of these phthalocyanines as photosensitizers of V79 cells, the survival data were replotted against the product of intracellular phthalocyanine concentration and light fluence (FIG. 2). From these curves, the product of intracellular concentration and light fluence reducing survival to 10% (CF10) was obtained, and comparisons of the values for AlPcCl and the test compounds are recorded in Table 1.

L5178Y cells = experiment: Induction of apoptosis (DNA fragmentation) in L5178Y-R cells (Table 6); format: cell-based, mouse; conditions: 1 μM at a fluence of 30 kJ/m^2
Outline: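 Exponentially growing mouse lymphoma L5178Y-R cells loaded 18 hours with phthalocyanine at various concentrations, then irradiated with >600 nm red light (up to 30 kJ/m^2, ~74 W/m^2). DNA isolated 2 hours post-PDT, run on 1.5% agarose; value is minimum PDT dose (concentration × fluence) giving visible DNA ladder.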

RIF-1 tumors = experiment: PDT of RIF-1 implanted tumors (Table 7); format: in vivo, C3H/HeN mice; conditions: 1 mg/kg in corn oil; 675 nm, 135 J/cm^2
Outline: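 C3H/HeN mice each carried one RIF-1 fibrosarcoma on the back and received 1 mg/kg phthalocyanine as a corn-oil suspension. Volume was measured daily by calipers from a 50±10 mm^3 start and calculated with the hemiellipsoid model.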

viruses = conditions: New York Blood Center (Ben-Hur); cited from earlier work

Row | SMILES | photocytotoxicity (in words) [1] | uptake by V79 cells (in words) [1] | Growth Delay, efficiency relative to 1 μM AlPcCl ([2]; 1.0 μM, 18 h, 12 kJ/m^2 red light) | inhibition of V79 culture growth (in words) ([2]; red light 12 kJ/m^2, three day period) | CF10 (AlPcCl)/CF10 (Pc) ([3]; CF10 = intracellular concentration x fluence reducing survival to 10%) | F10 (AlPcCl)/F10 (Pc) ([3]; F10 = fluence reducing survival to 10%) | induction of apoptosis (L5178Y cells) | Doubling Time of Initial Tumor Volume after PDT (RIF-1 tumors) | purging viruses from blood and/or blood components (viruses)
1 | CCN(CC)CC(O)COCCC[Si](C)(C)O[Si]1(O)n2c3c4ccccc4c2N=C2N=C(N=c4c5ccccc5c(n41)=NC1=NC(=N3)c3ccccc31)c1ccccc12 (stereo not drawn) [HOSiPcOSi(CH3)2 (CH2)3 OCH2 --CHOHCH2 N(C2 H5) 2] | excellent photocytotoxicity | taken up efficiently by the Chinese hamster fibroblast V79 cells |  |  |  |  |  |  | 
2 | C[N+](C)(C)CCC[Si](C)(C)O[Si]1(O)n2c3c4ccccc4c2N=C2N=C(N=c4c5ccccc5c(n41)=NC1=NC(=N3)c3ccccc31)c1ccccc12.[I-] (stereo not drawn) [Compound V, HOSiPcOSi(CH3)2 (CH2)3 N(CH3)3^+ I^-] |  |  | 0 | less inhibition of culture growth | 3.0 | 0.59 | did not induce apoptosis | 6 days | effective at purging viruses from blood and/or blood components
